Reference: ChEMBL document CHEMBL1147828, “Discovery of indole-containing tetracycles as a new scaffold for androgen receptor ligands” (Bioorg Med Chem Lett, 2006)
Calls of active or inactive are those of the source. The calls are words filed in the database; no cut-off is given here.

molecular target: T1, Androgen receptor (Rattus norvegicus) (UniProt P15207); assay: Inhibition of rat AR-mediated reporter gene expression in COS7 cells at 3 uM; type: cell-based; settings: COS-7
T1 sequence (whole entry): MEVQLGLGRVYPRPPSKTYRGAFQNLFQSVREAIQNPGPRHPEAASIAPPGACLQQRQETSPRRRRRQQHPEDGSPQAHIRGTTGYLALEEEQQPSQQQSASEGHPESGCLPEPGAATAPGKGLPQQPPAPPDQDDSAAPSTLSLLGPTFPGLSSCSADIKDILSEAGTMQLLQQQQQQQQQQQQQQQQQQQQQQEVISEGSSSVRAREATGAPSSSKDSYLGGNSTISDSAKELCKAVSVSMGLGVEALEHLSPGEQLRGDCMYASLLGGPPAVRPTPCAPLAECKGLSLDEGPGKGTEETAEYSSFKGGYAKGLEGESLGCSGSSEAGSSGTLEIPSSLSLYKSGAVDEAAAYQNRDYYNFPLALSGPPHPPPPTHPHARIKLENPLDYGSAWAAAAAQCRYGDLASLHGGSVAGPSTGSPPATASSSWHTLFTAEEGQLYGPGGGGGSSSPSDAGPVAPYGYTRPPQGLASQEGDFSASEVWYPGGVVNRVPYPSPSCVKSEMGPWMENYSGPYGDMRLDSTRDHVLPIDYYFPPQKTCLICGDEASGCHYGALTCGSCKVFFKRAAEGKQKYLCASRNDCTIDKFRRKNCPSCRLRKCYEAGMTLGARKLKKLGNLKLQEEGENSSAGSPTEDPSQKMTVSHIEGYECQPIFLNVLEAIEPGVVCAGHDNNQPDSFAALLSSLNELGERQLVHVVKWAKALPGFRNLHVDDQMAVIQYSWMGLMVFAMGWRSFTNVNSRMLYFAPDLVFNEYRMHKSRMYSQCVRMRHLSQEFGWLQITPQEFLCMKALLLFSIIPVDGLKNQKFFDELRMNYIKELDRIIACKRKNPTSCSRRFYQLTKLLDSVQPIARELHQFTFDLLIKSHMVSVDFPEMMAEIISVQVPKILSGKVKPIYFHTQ

SMILES | inhibition [%]
Cn1c2c(c3cc(O)ccc31)CCC1=CC(=O)CCC12C (configuration not stated) | 42
Cn1c2c(c3cc(O)ccc31)CCc1nccnc1-2 | 33
Cn1c2c(c3ccc(O)cc31)CCc1ncccc1-2 | 29

molecular target: T1, Androgen receptor (Rattus norvegicus); assay: Inhibition of rat AR-mediated reporter gene expression in COS7 cells; settings: COS-7

SMILES | Activity
CN1C(=O)CCC2(C)c3c(c4cc(O)ccc4n3C)CCC12 (configuration not stated) | inactive
Oc1ccc2nc3c(c(O)c2c1)CCc1ccccc1-3 | inactive
Cn1c2c(c3cc(C#N)ccc31)CSc1ccccc1-2 | inactive
CN1c2ccc(O)cc2C(=O)C2CCc3ccccc3C21 (configuration not stated) | inactive
Cn1c2c(c3ccc(O)cc31)CCC1=CC(=O)CCC12C (configuration not stated) | inactive
Cn1c2c(c3cc(Br)ccc31)CSc1ccccc1-2 | inactive
Cn1c2c(c3ccccc31)CSc1ccccc1-2 | inactive
Cn1c2c(c3cc(O)ccc31)C[S+]([O-])c1ccccc1-2 (configuration not stated) | inactive
Cn1c2c(c3cc(O)ccc31)CS(=O)(=O)c1ccccc1-2 | inactive
CN1Cc2c(n(C)c3cc(O)ccc23)-c2ccccc21 | inactive
Cn1c2c(c3ccc(O)cc31)SCc1ccccc1-2 | inactive
COc1ccc2c(c1)c1c(n2C)-c2ccccc2SC1 | inactive
CN(C)CCn1c2c(c3cc(O)ccc31)CSc1ccccc1-2 | inactive
Cc1ccc2c(c1)c1c(n2C)-c2ccccc2SC1 | inactive

molecular target: T1, Androgen receptor (Rattus norvegicus); assay: Inhibition of rat AR-mediated reporter gene expression in COS7 cells at 10 uM; type: cell-based; settings: COS-7

SMILES | inhibition [%]
Cn1c2c(c3cc(F)ccc31)CSc1cc(F)ccc1-2 | 48

molecular target: T2, Androgen receptor (Rattus norvegicus, UniProt P15207); assay: not given; settings: not given
T2 sequence (P15207 whole entry): T1 sequence (whole entry)

SMILES | IC50 [nM]
Cn1c2c(c3cc(O)ccc31)CCc1sccc1-2 | 580
Cn1c2c(c3ccc(O)cc31)CCSc1ccccc1-2 | 5000
Cn1c2c(c3cc(O)ccc31)CSc1ccccc1-2 | 110
Cn1c2c(c3ccc(O)cc31)CSc1ccccc1-2 | 130
CC(=O)Oc1ccc2c(c1)c1c(n2C)-c2ccccc2SC1 | 880
Oc1ccc2[nH]c3c(c2c1)CSc1ccccc1-3 | 4500
Cn1ccc2c1CCc1c-2n(C)c2ccc(O)cc12 | 370
Cn1c2c(c3cccc(O)c31)CSc1cc(F)ccc1-2 | 3800
Cn1c2c(c3ccc(O)cc31)C(C)(C)Sc1cc(O)ccc1-2 | 3400
CCn1c2c(c3cc(O)ccc31)CSc1ccccc1-2 | 2300
Cn1c2c(c3cc(Cl)ccc31)CSc1ccccc1-2 | 1500
Cn1c2c(c3ccc(O)cc31)CCCc1ccccc1-2 | 920
Cn1c2c(c3cc(O)ccc31)CSc1ccc(F)cc1-2 | 110
Cn1c2c(c3cc(O)ccc31)CSc1cc(Br)ccc1-2 | 2800
Cn1c2c(c3cc(F)ccc31)CSc1ccccc1-2 | 3700
Cn1c2c(c3cc(F)ccc31)CSc1cc(C(F)(F)F)ccc1-2 | 2800
COc1ccc2c(c1)SCc1c-2n(C)c2ccc(O)cc12 | 3000
Cn1c2c(c3cc(O)ccc31)CCc1cnccc1-2 | 930
Cn1c2c(c3cc(O)ccc31)CSc1cc(O)ccc1-2 | 2100
Cn1c2c(c3cc(O)ccc31)CSc1cc(F)ccc1-2 | 630
Cn1c2c(c3ccc(O)cc31)CCc1ccccc1-2 | 30
Cn1c2c(c3cc(O)ccc31)CCc1ncccc1-2 | 29
Cn1c2c(c3cc(O)ccc31)CSc1ncccc1-2 | 52
CC(=O)n1c2c(c3cc(O)ccc31)CSc1ccccc1-2 | 1000
